In PubChem BioAssay (NCI) one finds TGI and GI50 data, which are given here for 16 molecules.

Test systems include COLO 205 colon; U251 CNS; MDA-MB-435; PC-3 prostate; HS 578T breast; LXFL 529 NSCLC; DMS 273 small cell lung; SNB-78 CNS; M19-MEL melanoma; KM20L2 colon; XF 498 CNS; DMS 114 small cell lung; HOP-18 NSCLC; DLD-1 colon.
What all share (test): NCI anticancer screen, dose series, 48 h

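Method: 48-hour compound exposure of cells in 96-well plates, five concentrations, linear interpolation of endpoints. GI50 is the concentration that inhibits growth by half. TGI marks complete inhibition of growth.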 *1 amine or outer side, *2 acyl side, *3 side chain or, on linkers, in order; H or OH if unused. Where a SMILES comes first, the peptide text is derived from it. Bridges are numbered along the chain shown (N, C = ends). Roman numbers before positions name the chains, in order. [ ]: non-standard residue; d: D form. Actinocin(9to1) = Cc1c2oc3c(C)ccc(C(=O)[*:1])c3nc-2c(C(=O)[*:2])c(N)c1=O; NMeV = CN[CH](C(=O)O)C(C)C; Sar = CNCC(=O)O A value given as a limit tells only on which side of the number the result lay.

In the case of `COc1c(-c2ccc(F)cc2)oc2cc(O)cc(O)c2c1=O`, the TGI in the test with COLO 205 colon was 36.7 µM; with U251 CNS, 97.5 µM; in the test on MDA-MB-435, 93.8 µM; in the test on PC-3 prostate it was above 100 µM; with HS 578T breast, above 100 µM.

As for `COc1ccc(-c2cc(-c3ccc(OC)c(OC)c3)nc(SCCCC(=O)NO)n2)cc1`, the GI50 in the test with COLO 205 colon is 1.75 µM; in the test on U251 CNS, 1.76 µM; in the test on MDA-MB-435 it was 1.27 µM; in the test on PC-3 prostate it was 2.07 µM; in the test with HS 578T breast, 1.91 µM. Besides, the TGI was 5.98 µM in the test with COLO 205 colon; 5.78 µM in the test on U251 CNS; 4.15 µM in the test with MDA-MB-435; above 100 µM in the test on PC-3 prostate; 33 µM with HS 578T breast.

For the molecule `COc1ccc2c3c([nH]c2c1)-c1nc2ccccc2c(=O)n1CC3`, the TGI in the test on COLO 205 colon is above 25 µM; in the test on U251 CNS, above 25 µM; in the test on MDA-MB-435, above 25 µM; with PC-3 prostate, above 25 µM; with HS 578T breast, 10.6 µM. Besides, the GI50 in the test with HS 578T breast was 1.59 µM.

On to `CC(C)CCCC(C)[C@H]1CC[C@H]2NCCCC[C@]12C` (stereo partly drawn), for which the TGI is 3.14 µM in the test on COLO 205 colon; 5.88 µM in the test on U251 CNS; 4.1 µM in the test on MDA-MB-435; 10.4 µM in the test on PC-3 prostate; 15.8 µM with HS 578T breast.

`CC(=O)CCCCCCCCCCCC[C@@H]1CC[C@H](C)[C@H](O)N1`: the TGI in the test on COLO 205 colon, in the test on LXFL 529 NSCLC, in the test on DMS 273 small cell lung, with SNB-78 CNS, in the test with M19-MEL melanoma and in the test with U251 CNS was above 100 µM in each case. The TGI in the test on KM20L2 colon, with XF 498 CNS, in the test on DMS 114 small cell lung, with HOP-18 NSCLC and with DLD-1 colon was above 100 µM in each case.

Regarding `Cc1ccc(S(=O)(=O)CC2CCCn3c2c(C#N)c2ccccc23)cc1` (stereo not drawn), the TGI with COLO 205 colon, in the test with U251 CNS, in the test on MDA-MB-435, in the test on PC-3 prostate and with HS 578T breast was above 100 µM each time.

Turning to `O=C1c2ccccc2C2(c3ccc(Cl)cc3)N[C@@H]3CCCC[C@@H]3N12` (stereo partly drawn), the TGI with COLO 205 colon, in the test on U251 CNS, with MDA-MB-435, in the test on PC-3 prostate and in the test with HS 578T breast was above 100 µM each time.

In the case of `Cc1c2oc3c(C)ccc(C(=O)NC4C(=O)NC(Cc5ccc(O)cc5)C(=O)N5CCCC5C(=O)N(C)CC(=O)N(C)C(C(C)C)C(=O)OC4C)c3nc-2c(C(=O)NC2C(=O)NC(Cc3ccc(O)cc3)C(=O)N3CCCC3C(=O)N(C)CC(=O)N(C)C(C(C)C)C(=O)OC2C)c(N)c1=O` (stereo not drawn) (I: TYP[Sar][NMeV] / II: TYP[Sar][NMeV]; ester I:1-I:C, II:1-II:C; linker I:N-II:N via Actinocin(9to1); configuration not given here), the TGI was above 100 µM in the test on COLO 205 colon; above 48.7 µM in the test on U251 CNS; above 100 µM with MDA-MB-435; above 100 µM in the test with PC-3 prostate; 67.3 µM in the test on HS 578T breast.

As to `Cc1cc(=O)[nH]c(NN2C(Cl)C(=O)C2c2ccco2)n1` (stereo not drawn), the TGI with COLO 205 colon, in the test with LXFL 529 NSCLC, with DMS 273 small cell lung, in the test with SNB-78 CNS, in the test on M19-MEL melanoma and in the test on U251 CNS was above 100 µM each time. In addition, the TGI is above 100 µM in the test on KM20L2 colon, above 100 µM in the test on DMS 114 small cell lung and 58.8 µM in the test with HOP-18 NSCLC.

`COCCN(C(=O)c1ccccc1)C1CCC(=O)c2[nH]c3ccccc3c21` (stereo not drawn): the TGI is 31.5 µM with COLO 205 colon; 3.99 µM in the test with U251 CNS; 17.5 µM in the test with MDA-MB-435; 12.8 µM in the test on PC-3 prostate; above 75.5 µM in the test on HS 578T breast.

On to `CCn1c(SCc2nnc(Nc3ccccc3)s2)nc2ccccc2c1=O`, for which the TGI in the test on COLO 205 colon was 43.2 µM; in the test on U251 CNS it was 5.3 µM; with MDA-MB-435, above 100 µM; in the test on PC-3 prostate, above 67.4 µM; with HS 578T breast, 8.56 µM.

For the molecule `CCCC(CC)c1cc(O)c(O)cc1C(CC)CCC` (stereo not drawn), the TGI in the test with COLO 205 colon, with U251 CNS, in the test with MDA-MB-435, in the test with PC-3 prostate and with HS 578T breast was above 10 µM throughout.

Turning to `CC(=O)NCC1OC2COC(c3ccccc3)OC2C2N=C(c3ccccc3)OC12` (stereo not drawn), the TGI with COLO 205 colon, in the test on U251 CNS, in the test on MDA-MB-435, with PC-3 prostate and in the test with HS 578T breast was above 100 µM throughout.

Consider `Cc1ccc(C2(N3CCOCC3)OC(C)(C)c3cccc4cccc2c34)cc1` (stereo not drawn), for which the TGI in the test on COLO 205 colon stood at 31 µM; with U251 CNS, 30.7 µM; in the test with MDA-MB-435, 32.6 µM; with PC-3 prostate, 34.2 µM; in the test on HS 578T breast it was 46 µM.

In the case of `Cc1cccc(=O)c([O-])c1.Cc1cccc(=O)c([O-])c1.Cc1cccc(=O)c([O-])c1.Cc1cccc(=O)c([O-])c1.[Th+4]`, the TGI is above 100 µM in the test on COLO 205 colon; above 100 µM in the test with LXFL 529 NSCLC; 33 µM with DMS 273 small cell lung; above 100 µM in the test with SNB-78 CNS; 61.8 µM in the test with M19-MEL melanoma; above 100 µM in the test on U251 CNS. Besides, the TGI was above 100 µM in the test on KM20L2 colon; 64.9 µM in the test with XF 498 CNS; 15.6 µM in the test with DMS 114 small cell lung; above 100 µM with HOP-18 NSCLC; above 100 µM in the test with DLD-1 colon. For the same molecule, the GI50 with XF 498 CNS is 23.3 µM.

On to `C=C(C)[C@@H]1CC[C@]2(C(=O)OC3OC(COC4OC(CO)C(OC5OC(C)C(O)C(O)C5O)C(O)C4O)C(O)C(O)C3O)CC[C@]3(C)[C@H](CC[C@@H]4[C@@]5(C)CC[C@H](O)[C@@](C)(CO)[C@@H]5CC[C@]43C)[C@@H]12` (stereo partly drawn), for which the TGI in the test on COLO 205 colon was 3.2 µM; in the test on U251 CNS, above 10 µM; in the test with MDA-MB-435 it was above 10 µM; in the test with PC-3 prostate it was above 8.45 µM; in the test on HS 578T breast it was above 9.62 µM.
